Experimental data as given in US12281080B2, “Quinoline-based compounds and methods of inhibiting CDK8/19” (University of South Carolina, priority 2018, dated 2025).

Columns and labels:
[1] = target: ABL1(F317L)-phosphorylated (Homo sapiens (Human), UniProt P00519, F317L); experiment: KINOMEscan scanMAX; assay type: binding; settings: 2000 nM; read-out: Percent Control
[2] = target: CDC2L1 (CDK11B) (Homo sapiens (Human), UniProt P21127); experiment: KINOMEscan scanMAX; assay type: binding; settings: 2000 nM; read-out: Percent Control
[3] = target: CDK4-cyclinD3 (Homo sapiens (Human), UniProt P11802); experiment: KINOMEscan scanMAX; assay type: binding; settings: 2000 nM; read-out: Percent Control
[4] = target: CHEK2 (Homo sapiens (Human), UniProt O96017); experiment: KINOMEscan scanMAX; assay type: binding; settings: 2000 nM; read-out: Percent Control
[5] = target: CLK1 (Homo sapiens (Human), UniProt P49759); experiment: KINOMEscan scanMAX; assay type: binding; settings: 2000 nM; read-out: Percent Control
[6] = target: DCAMKL3 (DCLK3) (Homo sapiens (Human), UniProt Q9C098); experiment: KINOMEscan scanMAX; assay type: binding; settings: 2000 nM; read-out: Percent Control
[7] = target: EGFR(L858R) (Homo sapiens (Human), UniProt P00533, L858R); experiment: KINOMEscan scanMAX; assay type: binding; settings: 2000 nM; read-out: Percent Control
[8] = target: EPHA1 (Homo sapiens (Human), UniProt P21709); experiment: KINOMEscan scanMAX; assay type: binding; settings: 2000 nM; read-out: Percent Control
[9] = target: EPHA4 (Homo sapiens (Human), UniProt P54764); experiment: KINOMEscan scanMAX; assay type: binding; settings: 2000 nM; read-out: Percent Control
[10] = target: ERK3 (MAPK6) (Homo sapiens (Human), UniProt Q16659); experiment: KINOMEscan scanMAX; assay type: binding; settings: 2000 nM; read-out: Percent Control
[11] = target: FLT3(D835V) (Homo sapiens (Human), UniProt P36888, D835V); experiment: KINOMEscan scanMAX; assay type: binding; settings: 2000 nM; read-out: Percent Control
[12] = target: FYN (Homo sapiens (Human), UniProt P06241); experiment: KINOMEscan scanMAX; assay type: binding; settings: 2000 nM; read-out: Percent Control
[13] = target: HASPIN (GSG2) (Homo sapiens (Human), UniProt Q8TF76); experiment: KINOMEscan scanMAX; assay type: binding; settings: 2000 nM; read-out: Percent Control
[14] = target: INSRR (Homo sapiens (Human), UniProt P14616); experiment: KINOMEscan scanMAX; assay type: binding; settings: 2000 nM; read-out: Percent Control
[15] = target: IRAK1 (Homo sapiens (Human), UniProt P51617); experiment: KINOMEscan scanMAX; assay type: binding; settings: 2000 nM; read-out: Percent Control
[16] = target: LCK (Homo sapiens (Human), UniProt P06239); experiment: KINOMEscan scanMAX; assay type: binding; settings: 2000 nM; read-out: Percent Control
[17] = target: LTK (Homo sapiens (Human), UniProt P29376); experiment: KINOMEscan scanMAX; assay type: binding; settings: 2000 nM; read-out: Percent Control
[18] = target: MAP4K2 (Homo sapiens (Human), UniProt Q12851); experiment: KINOMEscan scanMAX; assay type: binding; settings: 2000 nM; read-out: Percent Control
[19] = target: MAST1 (Homo sapiens (Human), UniProt Q9Y2H9); experiment: KINOMEscan scanMAX; assay type: binding; settings: 2000 nM; read-out: Percent Control
[20] = target: MERTK (Homo sapiens (Human), UniProt Q12866); experiment: KINOMEscan scanMAX; assay type: binding; settings: 2000 nM; read-out: Percent Control
[21] = target: MLK2 (MAP3K10) (Homo sapiens (Human), UniProt Q02779); experiment: KINOMEscan scanMAX; assay type: binding; settings: 2000 nM; read-out: Percent Control
[22] = target: MST1R (Homo sapiens (Human), UniProt Q04912); experiment: KINOMEscan scanMAX; assay type: binding; settings: 2000 nM; read-out: Percent Control
[23] = target: MST4 (Homo sapiens (Human), UniProt Q9P289); experiment: KINOMEscan scanMAX; assay type: binding; settings: 2000 nM; read-out: Percent Control
[24] = target: MUSK (Homo sapiens (Human), UniProt O15146); experiment: KINOMEscan scanMAX; assay type: binding; settings: 2000 nM; read-out: Percent Control
[25] = target: NEK5 (Homo sapiens (Human), UniProt Q6P3R8); experiment: KINOMEscan scanMAX; assay type: binding; settings: 2000 nM; read-out: Percent Control
[26] = target: NIK (MAP3K14) (Homo sapiens (Human), UniProt Q99558); experiment: KINOMEscan scanMAX; assay type: binding; settings: 2000 nM; read-out: Percent Control
[27] = target: PDGFRA (Homo sapiens (Human), UniProt P16234); experiment: KINOMEscan scanMAX; assay type: binding; settings: 2000 nM; read-out: Percent Control
[28] = target: PDGFRB (Homo sapiens (Human), UniProt P09619); experiment: KINOMEscan scanMAX; assay type: binding; settings: 2000 nM; read-out: Percent Control
[29] = target: PKN1 (Homo sapiens (Human), UniProt Q16512); experiment: KINOMEscan scanMAX; assay type: binding; settings: 2000 nM; read-out: Percent Control
[30] = target: PRP4 (PRPF4B) (Homo sapiens (Human), UniProt Q13523); experiment: KINOMEscan scanMAX; assay type: binding; settings: 2000 nM; read-out: Percent Control
[31] = target: RIOK2 (Homo sapiens (Human), UniProt Q9BVS4); experiment: KINOMEscan scanMAX; assay type: binding; settings: 2000 nM; read-out: Percent Control
[32] = target: SBK1 (Homo sapiens (Human), UniProt Q52WX2); experiment: KINOMEscan scanMAX; assay type: binding; settings: 2000 nM; read-out: Percent Control
[33] = target: SRPK2 (Homo sapiens (Human), UniProt P78362); experiment: KINOMEscan scanMAX; assay type: binding; settings: 2000 nM; read-out: Percent Control
[34] = target: STK39 (Homo sapiens (Human), UniProt Q9UEW8); experiment: KINOMEscan scanMAX; assay type: binding; settings: 2000 nM; read-out: Percent Control
[35] = target: TBK1 (Homo sapiens (Human), UniProt Q9UHD2); experiment: KINOMEscan scanMAX; assay type: binding; settings: 2000 nM; read-out: Percent Control
[36] = target: TEC (Homo sapiens (Human), UniProt P42680); experiment: KINOMEscan scanMAX; assay type: binding; settings: 2000 nM; read-out: Percent Control
[37] = target: TRPM6 (Homo sapiens (Human), UniProt Q9BX84); experiment: KINOMEscan scanMAX; assay type: binding; settings: 2000 nM; read-out: Percent Control
[38] = target: WNK2 (Homo sapiens (Human), UniProt Q9Y3S1); experiment: KINOMEscan scanMAX; assay type: binding; settings: 2000 nM; read-out: Percent Control
[39] = target: YANK1 (STK32A) (Homo sapiens (Human), UniProt Q8WU08); experiment: KINOMEscan scanMAX; assay type: binding; settings: 2000 nM; read-out: Percent Control
[40] = target: CDK8 (Homo sapiens (Human), UniProt P49336); experiment: DiscoverX Kd assay

Sequence of RIOK2 (Q9BVS4 whole entry): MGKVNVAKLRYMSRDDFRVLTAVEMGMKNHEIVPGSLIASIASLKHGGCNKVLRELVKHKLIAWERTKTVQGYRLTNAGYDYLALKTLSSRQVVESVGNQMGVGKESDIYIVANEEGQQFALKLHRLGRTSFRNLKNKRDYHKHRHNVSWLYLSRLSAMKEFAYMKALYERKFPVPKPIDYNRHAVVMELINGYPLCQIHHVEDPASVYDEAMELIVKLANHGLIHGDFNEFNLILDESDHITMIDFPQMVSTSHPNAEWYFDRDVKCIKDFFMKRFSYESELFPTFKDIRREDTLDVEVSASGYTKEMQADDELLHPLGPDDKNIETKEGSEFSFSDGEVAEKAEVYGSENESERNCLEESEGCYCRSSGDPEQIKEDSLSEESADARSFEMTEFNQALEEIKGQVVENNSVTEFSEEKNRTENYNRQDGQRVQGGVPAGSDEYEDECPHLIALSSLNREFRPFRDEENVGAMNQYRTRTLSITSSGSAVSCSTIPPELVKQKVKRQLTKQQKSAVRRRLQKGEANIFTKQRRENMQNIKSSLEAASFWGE
Sequence of EGFR(L858R) (P00533 25-1210 L858R): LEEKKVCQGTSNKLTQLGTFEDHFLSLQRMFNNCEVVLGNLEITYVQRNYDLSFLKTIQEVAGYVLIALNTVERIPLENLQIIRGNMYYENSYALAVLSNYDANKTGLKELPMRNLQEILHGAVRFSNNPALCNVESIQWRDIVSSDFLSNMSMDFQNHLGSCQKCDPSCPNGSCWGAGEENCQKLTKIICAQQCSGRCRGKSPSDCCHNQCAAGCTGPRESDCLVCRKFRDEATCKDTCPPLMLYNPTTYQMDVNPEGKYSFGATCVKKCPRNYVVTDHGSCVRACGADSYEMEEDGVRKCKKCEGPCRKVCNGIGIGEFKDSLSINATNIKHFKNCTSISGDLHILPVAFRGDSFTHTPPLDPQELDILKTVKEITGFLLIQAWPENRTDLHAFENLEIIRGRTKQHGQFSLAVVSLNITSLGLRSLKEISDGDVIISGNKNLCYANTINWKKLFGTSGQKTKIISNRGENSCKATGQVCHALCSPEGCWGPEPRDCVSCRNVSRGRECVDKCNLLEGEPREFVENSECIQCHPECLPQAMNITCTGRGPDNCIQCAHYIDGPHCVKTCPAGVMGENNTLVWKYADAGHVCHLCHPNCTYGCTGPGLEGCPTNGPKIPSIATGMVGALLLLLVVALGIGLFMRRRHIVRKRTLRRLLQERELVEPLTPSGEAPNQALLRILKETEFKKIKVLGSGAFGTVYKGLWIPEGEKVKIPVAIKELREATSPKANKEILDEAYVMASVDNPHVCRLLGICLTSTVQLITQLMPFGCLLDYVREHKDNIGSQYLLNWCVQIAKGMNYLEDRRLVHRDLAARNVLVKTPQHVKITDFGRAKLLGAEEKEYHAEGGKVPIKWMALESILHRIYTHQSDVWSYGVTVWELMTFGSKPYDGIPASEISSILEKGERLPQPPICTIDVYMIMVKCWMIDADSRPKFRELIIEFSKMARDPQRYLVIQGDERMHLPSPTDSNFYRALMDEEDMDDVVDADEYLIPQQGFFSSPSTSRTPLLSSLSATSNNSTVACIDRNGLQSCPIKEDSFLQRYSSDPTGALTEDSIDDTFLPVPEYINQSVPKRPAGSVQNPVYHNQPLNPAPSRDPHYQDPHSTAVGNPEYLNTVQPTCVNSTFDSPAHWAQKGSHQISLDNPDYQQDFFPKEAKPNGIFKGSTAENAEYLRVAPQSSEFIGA
Sequence of EPHA4 (P54764 20-986): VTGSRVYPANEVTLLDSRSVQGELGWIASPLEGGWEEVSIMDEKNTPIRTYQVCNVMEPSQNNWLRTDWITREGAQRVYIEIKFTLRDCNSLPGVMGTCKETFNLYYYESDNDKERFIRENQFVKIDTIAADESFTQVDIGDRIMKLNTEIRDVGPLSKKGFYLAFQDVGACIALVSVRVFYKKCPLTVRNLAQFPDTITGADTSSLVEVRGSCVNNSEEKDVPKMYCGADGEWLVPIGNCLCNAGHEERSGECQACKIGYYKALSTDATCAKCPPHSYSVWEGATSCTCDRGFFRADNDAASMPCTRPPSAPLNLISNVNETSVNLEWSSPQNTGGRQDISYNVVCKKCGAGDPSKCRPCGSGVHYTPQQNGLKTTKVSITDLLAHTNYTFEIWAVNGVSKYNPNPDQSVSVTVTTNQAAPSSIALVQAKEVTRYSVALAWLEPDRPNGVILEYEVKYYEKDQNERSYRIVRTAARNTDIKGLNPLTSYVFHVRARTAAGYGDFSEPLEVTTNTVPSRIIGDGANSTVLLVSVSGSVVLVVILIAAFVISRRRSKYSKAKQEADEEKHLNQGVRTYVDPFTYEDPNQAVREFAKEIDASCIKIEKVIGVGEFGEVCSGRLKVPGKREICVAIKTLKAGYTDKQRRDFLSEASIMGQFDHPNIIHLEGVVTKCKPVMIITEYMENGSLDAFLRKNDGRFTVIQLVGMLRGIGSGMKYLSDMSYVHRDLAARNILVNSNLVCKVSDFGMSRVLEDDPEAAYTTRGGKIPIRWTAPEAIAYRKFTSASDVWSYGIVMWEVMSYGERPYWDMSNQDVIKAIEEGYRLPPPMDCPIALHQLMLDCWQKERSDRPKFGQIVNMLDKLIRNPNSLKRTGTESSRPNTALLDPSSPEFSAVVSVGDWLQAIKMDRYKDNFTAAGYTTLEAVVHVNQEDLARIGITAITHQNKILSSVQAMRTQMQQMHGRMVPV
Sequence of INSRR (P14616 27-1297): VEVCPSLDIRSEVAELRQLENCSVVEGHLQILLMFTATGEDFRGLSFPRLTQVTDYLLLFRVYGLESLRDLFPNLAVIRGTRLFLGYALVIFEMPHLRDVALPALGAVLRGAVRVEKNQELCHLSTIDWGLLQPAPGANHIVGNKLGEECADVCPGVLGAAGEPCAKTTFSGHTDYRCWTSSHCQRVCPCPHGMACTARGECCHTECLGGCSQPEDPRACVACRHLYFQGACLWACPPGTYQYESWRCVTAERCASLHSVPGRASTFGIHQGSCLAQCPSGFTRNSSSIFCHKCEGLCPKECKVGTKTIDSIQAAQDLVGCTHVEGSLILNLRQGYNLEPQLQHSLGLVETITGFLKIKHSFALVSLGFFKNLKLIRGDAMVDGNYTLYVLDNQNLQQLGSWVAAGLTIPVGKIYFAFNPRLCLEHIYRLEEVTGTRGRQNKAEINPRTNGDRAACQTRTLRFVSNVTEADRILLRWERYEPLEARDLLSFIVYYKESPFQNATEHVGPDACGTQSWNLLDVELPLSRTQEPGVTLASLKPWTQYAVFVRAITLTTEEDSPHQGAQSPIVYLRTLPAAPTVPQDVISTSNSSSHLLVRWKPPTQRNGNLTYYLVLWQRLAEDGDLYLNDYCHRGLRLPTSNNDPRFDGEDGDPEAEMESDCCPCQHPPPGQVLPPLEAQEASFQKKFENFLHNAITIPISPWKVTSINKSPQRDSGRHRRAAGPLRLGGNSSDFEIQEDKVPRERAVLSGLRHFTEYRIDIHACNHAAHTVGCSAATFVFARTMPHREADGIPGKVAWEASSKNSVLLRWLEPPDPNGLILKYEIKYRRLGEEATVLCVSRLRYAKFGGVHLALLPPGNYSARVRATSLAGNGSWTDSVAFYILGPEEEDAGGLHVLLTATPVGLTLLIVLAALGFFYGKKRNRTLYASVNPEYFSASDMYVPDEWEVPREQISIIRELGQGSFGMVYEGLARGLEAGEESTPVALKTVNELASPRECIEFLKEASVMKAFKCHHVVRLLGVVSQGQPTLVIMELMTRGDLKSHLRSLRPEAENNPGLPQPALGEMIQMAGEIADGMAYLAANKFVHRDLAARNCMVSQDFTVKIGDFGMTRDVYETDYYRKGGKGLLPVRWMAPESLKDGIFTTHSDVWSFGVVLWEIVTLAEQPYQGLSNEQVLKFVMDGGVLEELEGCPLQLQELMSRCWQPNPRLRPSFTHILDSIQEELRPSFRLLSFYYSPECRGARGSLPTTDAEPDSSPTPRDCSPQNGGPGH
Sequence of PKN1 (Q16512 whole entry): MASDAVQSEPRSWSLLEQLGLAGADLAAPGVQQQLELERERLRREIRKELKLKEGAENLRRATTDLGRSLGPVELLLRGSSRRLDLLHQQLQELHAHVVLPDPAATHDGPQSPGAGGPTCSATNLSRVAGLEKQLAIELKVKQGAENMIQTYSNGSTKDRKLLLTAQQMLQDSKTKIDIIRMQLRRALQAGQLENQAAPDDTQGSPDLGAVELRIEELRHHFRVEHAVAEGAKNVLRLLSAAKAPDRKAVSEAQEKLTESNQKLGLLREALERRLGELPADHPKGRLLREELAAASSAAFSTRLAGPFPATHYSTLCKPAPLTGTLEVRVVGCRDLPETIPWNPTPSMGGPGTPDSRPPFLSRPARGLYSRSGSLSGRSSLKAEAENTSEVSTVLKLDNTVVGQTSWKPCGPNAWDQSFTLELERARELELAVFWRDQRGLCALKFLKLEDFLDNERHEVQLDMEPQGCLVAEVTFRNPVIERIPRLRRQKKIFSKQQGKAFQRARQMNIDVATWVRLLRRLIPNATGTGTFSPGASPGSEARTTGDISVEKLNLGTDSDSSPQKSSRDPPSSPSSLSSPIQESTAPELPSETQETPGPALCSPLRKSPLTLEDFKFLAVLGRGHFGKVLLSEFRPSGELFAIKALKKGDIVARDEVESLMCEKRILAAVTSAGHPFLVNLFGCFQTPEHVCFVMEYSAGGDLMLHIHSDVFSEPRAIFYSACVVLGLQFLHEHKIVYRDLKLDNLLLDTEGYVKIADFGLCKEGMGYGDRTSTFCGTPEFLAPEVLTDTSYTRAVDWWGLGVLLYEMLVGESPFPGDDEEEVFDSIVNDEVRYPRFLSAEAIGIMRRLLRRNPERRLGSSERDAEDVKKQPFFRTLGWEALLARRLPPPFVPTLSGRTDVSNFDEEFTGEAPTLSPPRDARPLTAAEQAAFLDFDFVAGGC

CN1CCN(C(=O)c2ccc3cc(CCNc4ccnc5ccc(C#N)cc45)ccc3c2)CC1 [compound 6148, 4-((2-(6-(4-methylpiperazine-1-carbonyl)naphthalen-2-yl)ethyl)amino)quinoline-6-carbonitrile]
remaining binding at 2 µM [1]: 74% | remaining binding at 2 µM [2]: 96% | remaining binding at 2 µM [3]: 80% | remaining binding at 2 µM [4]: 98% | remaining binding at 2 µM [5]: 60% | remaining binding at 2 µM [6]: 96% | remaining binding at 2 µM [7]: 93% | remaining binding at 2 µM [8]: 93% | remaining binding at 2 µM [9]: 93% | remaining binding at 2 µM [10]: 89% | remaining binding at 2 µM [11]: 67% | remaining binding at 2 µM [12]: 89% | remaining binding at 2 µM [13]: 29% | remaining binding at 2 µM [14]: 88% | remaining binding at 2 µM [15]: 45% | remaining binding at 2 µM [16]: 92% | remaining binding at 2 µM [17]: 93% | remaining binding at 2 µM [18]: 29% | remaining binding at 2 µM [19]: 96% | remaining binding at 2 µM [20]: 89% | remaining binding at 2 µM [21]: 79% | remaining binding at 2 µM [22]: 100% | remaining binding at 2 µM [23]: 68% | remaining binding at 2 µM [24]: 90% | remaining binding at 2 µM [25]: 97% | remaining binding at 2 µM [26]: 88% | remaining binding at 2 µM [27]: 97% | remaining binding at 2 µM [28]: 94% | remaining binding at 2 µM [29]: 100% | remaining binding at 2 µM [30]: 71% | remaining binding at 2 µM [31]: 64% | remaining binding at 2 µM [32]: 57% | remaining binding at 2 µM [33]: 94% | remaining binding at 2 µM [34]: 44% | remaining binding at 2 µM [35]: 88% | remaining binding at 2 µM [36]: 100% | remaining binding at 2 µM [37]: 88% | remaining binding at 2 µM [38]: 59% | remaining binding at 2 µM [39]: 76% | Kd [40]: 55 nM
